Assays:
[1] = tested on: EphB receptors; experiment: Peptide pull-down of endogenous EphB receptors from lysates; assay type: binding; settings: peptide on streptavidin beads; mouse brain or cultured cell lysates
Experimental: The ability of the peptides to bind in a stable manner, which is important for both targeting and competitive inhibition, was tested in pull-down experiments. For peptide pull-down experiments, cells in 60 cm plates at 70% confluency or adult mouse brain tissue were solubilized in pull-down buffer (50 mM HEPES pH 7.5, 150 mM NaCl, 10% glycerol, 1% Triton-X100, 5 mM KCl and 1 mM EDTA). Three μg of biotinylated peptide were incubated for 45-90 min with 5 μl streptavidin agarose beads (Sigma), unbound peptide was washed away, and the beads were incubated with the cell lysates for 45-90 min. Proteins bound to the beads were separated by SDS-polyacrylamide gel electrophoresis and probed by immunoblotting with EphB1, EphB2, or EphB4 antibodies. The EphB1 antibody (Santa Cruz) was detected with a secondary anti-goat IgG peroxidase-conjugated antibody (BioRad Laboratories). The EphB2 and EphB4 antibodies were affinity-purified polyclonal antibodies to GST fusion proteins containing approximately 100 amino acids from the carboxy-terminal tails of the EphB2 or EphB4 receptors (Noren, N. K. et al. 2004 PNAS USA 101:5583-5588; Holash, J. A. & Pasquale, E. B. 1995 Devel Biol 172:683-693) and were detected with a secondary anti-rabbit IgG peroxidase-conjugated antibody (Amersham Biosciences). […]

[2] = tested on: COS cells; settings: 400 μM peptide; […] ephrin-B1 Fc
Experimental: Upon treatment with 1.5 μg/ml ephrin-B1 Fc, COS cells retract at the periphery, leaving behind spike-like protrusions. […] COS cells were plated onto glass coverslips and sixteen hours later were starved for three hours in DME with 0.5% fetal calf serum. The cells were then incubated for 20 min with 400 μM SNEW or control peptide in PBS, or an equal volume of PBS as a control, and then either left untreated or stimulated for 10 min with 1.5 μg/ml ephrinB1-Fc (R&D Systems, Inc.). […] Control peptide: RTVA.

[3] = target: T1, EphB4 (Homo sapiens, UniProt P54760); experiment: Peptide competition of phage binding to EphB4 ectodomain; settings: concentration-dependent
T1 construct: panned on the ectodomains of EphB1, EphB2, or EphB4 fused to human Fc
T1 sequence (P54760 16-539 limits assumed): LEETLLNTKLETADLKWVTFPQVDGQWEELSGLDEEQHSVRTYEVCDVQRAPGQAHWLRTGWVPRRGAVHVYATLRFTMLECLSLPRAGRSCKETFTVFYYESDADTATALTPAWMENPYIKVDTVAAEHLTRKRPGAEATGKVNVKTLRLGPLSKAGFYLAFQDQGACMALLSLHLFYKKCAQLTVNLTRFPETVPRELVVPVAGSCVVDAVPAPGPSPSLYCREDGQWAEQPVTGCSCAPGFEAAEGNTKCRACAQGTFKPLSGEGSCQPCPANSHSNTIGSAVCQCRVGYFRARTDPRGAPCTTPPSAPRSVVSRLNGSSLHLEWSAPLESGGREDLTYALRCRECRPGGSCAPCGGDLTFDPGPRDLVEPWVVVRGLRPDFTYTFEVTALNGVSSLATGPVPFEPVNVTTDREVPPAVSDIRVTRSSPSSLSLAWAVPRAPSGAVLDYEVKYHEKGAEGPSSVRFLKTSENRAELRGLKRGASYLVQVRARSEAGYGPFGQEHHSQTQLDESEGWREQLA
Experimental: To measure peptide competition of phage binding to EphB receptors, Ni-NTA wells coated with Eph ectodomain Fc were incubated for 30 min at room temperature with various peptide concentrations in binding buffer (100 μl/well). Concentrated stocks of phage clones diluted between 1:500 and 1:10,000 in binding buffer were then added to the wells for a 1 hr at room temperature. Wells were washed and bound phage were detected using the anti-M13 antibody. A biotinylated control peptide with sequence unrelated to the sequences of the Eph-binding peptides ([…], SEQ ID NO: 40) was used as a negative control in some of the experiments, as indicated in the figure legends.
[…]. The SNEW peptide at 25 μM inhibited EphB2 binding of most phage clones isolated by panning on EphB2 (FIGS. 2E and G). The only exceptions were the IHWP, DHRWV and WHWT clones. However, binding of these clones was inhibited by 50 μM SNEW peptide, particularly when the phage concentration was halved. […] Bound phage were detected using anti-M13 phage antibody coupled to HRP and phage binding in the presence of peptide was normalized to phage binding in the absence of peptide. Error bars indicate standard deviation from duplicate measurements, and were calculated taking into account propagation of errors.

[4] = target: T2, EphB4 (Homo sapiens, UniProt P54760); experiment: Peptide pull-down of EphB4 from MCF7 or transfected 293T cells; assay type: binding
T2 construct: MCF-7 human breast cancer cells, which endogenously express EphB4; endogenous in cells; host or cells: MCF7
T2 sequence (P54760 16-987): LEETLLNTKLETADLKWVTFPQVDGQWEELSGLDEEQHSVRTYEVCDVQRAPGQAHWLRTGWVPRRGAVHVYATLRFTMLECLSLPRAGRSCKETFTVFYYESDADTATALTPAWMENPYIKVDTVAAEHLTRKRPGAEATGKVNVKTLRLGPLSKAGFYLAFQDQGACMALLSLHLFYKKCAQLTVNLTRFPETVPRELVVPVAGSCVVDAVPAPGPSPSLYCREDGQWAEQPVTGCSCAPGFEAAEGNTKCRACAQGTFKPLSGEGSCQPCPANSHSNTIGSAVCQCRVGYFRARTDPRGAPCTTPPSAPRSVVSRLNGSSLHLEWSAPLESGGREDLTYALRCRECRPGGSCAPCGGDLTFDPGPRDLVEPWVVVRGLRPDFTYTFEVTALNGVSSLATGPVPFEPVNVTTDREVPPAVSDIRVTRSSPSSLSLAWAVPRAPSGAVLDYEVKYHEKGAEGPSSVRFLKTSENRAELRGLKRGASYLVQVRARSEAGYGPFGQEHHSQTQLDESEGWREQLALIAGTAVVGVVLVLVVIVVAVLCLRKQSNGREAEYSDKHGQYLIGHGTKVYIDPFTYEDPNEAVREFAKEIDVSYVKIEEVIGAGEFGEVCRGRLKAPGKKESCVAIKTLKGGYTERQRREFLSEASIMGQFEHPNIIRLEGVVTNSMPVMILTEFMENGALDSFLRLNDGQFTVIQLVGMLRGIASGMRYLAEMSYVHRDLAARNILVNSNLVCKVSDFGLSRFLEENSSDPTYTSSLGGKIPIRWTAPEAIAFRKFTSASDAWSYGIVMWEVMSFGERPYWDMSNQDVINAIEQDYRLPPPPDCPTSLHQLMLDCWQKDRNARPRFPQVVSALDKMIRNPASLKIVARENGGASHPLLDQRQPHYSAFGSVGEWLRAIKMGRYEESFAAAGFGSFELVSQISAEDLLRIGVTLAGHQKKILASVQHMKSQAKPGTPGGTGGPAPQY
Experimental: The ability of the peptides to bind in a stable manner, which is important for both targeting and competitive inhibition, was tested in pull-down experiments. For peptide pull-down experiments, cells in 60 cm plates at 70% confluency or adult mouse brain tissue were solubilized in pull-down buffer (50 mM HEPES pH 7.5, 150 mM NaCl, 10% glycerol, 1% Triton-X100, 5 mM KCl and 1 mM EDTA). Three μg of biotinylated peptide were incubated for 45-90 min with 5 μl streptavidin agarose beads (Sigma), unbound peptide was washed away, and the beads were incubated with the cell lysates for 45-90 min. Proteins bound to the beads were separated by SDS-polyacrylamide gel electrophoresis and probed by immunoblotting with EphB1, EphB2, or EphB4 antibodies. The EphB1 antibody (Santa Cruz) was detected with a secondary anti-goat IgG peroxidase-conjugated antibody (BioRad Laboratories). The EphB2 and EphB4 antibodies were affinity-purified polyclonal antibodies to GST fusion proteins containing approximately 100 amino acids from the carboxy-terminal tails of the EphB2 or EphB4 receptors (Noren, N. K. et al. 2004 PNAS USA 101:5583-5588; Holash, J. A. & Pasquale, E. B. 1995 Devel Biol 172:683-693) and were detected with a secondary anti-rabbit IgG peroxidase-conjugated antibody (Amersham Biosciences).
Endogenous EphB receptors were isolated from lysates of mouse brain or cultured cells using the EWLS, SNEW, and TNYL peptides immobilized on streptavidin beads (FIGS. 5B, F, G and H). […] RTVA was used as a control peptide for the EphB4 pull downs. The NPVI peptide could isolate EphB4 from transfected cells but not endogenous EphB4 from MCF7 cells, which is present at lower levels (FIGS. 5B, F, G and H). […] EphB receptors were not detected bound to the beads coated with the other peptides.

[5] = Solubility in aqueous buffers; assay type: physicochemical
Source text: To determine whether different phage clones target overlapping Eph receptor binding sites, the EWLS EphB1-binding peptide and the TNYL EphB4-binding peptide were chemically synthesized. […] Peptides were synthesized using Fmoc (N-(9-fluorenyl)methoxycarbonyl) chemistry and purified by high pressure liquid chromatography. Biotinylated peptides were synthesized with a carboxy-terminal GSGSK linker with biotin attached to the lysine side chain or with a carboxy-terminal GSGS sequence linked to a carboxy-terminal N-biotinyl-N′-Fmoc-ethylenediamine (Novabiochem). Matrix-assisted laser desorption ionization-time of flight mass spectrometry was used to verify proper peptide synthesis, and purity. Stock solutions of the peptides were dissolved in phosphate buffered saline (PBS, Irvine Scientific) and the pH was verified to be ˜6.5. […] Peptide concentrations were calculated based on (O)280.

[6] = target: T3, EphB2 (Homo sapiens, UniProt P29323); settings: read-out: KD for monovalent EphB2-ephrin-B2 interaction; cited from earlier work
T3 sequence (P29323 19-1055): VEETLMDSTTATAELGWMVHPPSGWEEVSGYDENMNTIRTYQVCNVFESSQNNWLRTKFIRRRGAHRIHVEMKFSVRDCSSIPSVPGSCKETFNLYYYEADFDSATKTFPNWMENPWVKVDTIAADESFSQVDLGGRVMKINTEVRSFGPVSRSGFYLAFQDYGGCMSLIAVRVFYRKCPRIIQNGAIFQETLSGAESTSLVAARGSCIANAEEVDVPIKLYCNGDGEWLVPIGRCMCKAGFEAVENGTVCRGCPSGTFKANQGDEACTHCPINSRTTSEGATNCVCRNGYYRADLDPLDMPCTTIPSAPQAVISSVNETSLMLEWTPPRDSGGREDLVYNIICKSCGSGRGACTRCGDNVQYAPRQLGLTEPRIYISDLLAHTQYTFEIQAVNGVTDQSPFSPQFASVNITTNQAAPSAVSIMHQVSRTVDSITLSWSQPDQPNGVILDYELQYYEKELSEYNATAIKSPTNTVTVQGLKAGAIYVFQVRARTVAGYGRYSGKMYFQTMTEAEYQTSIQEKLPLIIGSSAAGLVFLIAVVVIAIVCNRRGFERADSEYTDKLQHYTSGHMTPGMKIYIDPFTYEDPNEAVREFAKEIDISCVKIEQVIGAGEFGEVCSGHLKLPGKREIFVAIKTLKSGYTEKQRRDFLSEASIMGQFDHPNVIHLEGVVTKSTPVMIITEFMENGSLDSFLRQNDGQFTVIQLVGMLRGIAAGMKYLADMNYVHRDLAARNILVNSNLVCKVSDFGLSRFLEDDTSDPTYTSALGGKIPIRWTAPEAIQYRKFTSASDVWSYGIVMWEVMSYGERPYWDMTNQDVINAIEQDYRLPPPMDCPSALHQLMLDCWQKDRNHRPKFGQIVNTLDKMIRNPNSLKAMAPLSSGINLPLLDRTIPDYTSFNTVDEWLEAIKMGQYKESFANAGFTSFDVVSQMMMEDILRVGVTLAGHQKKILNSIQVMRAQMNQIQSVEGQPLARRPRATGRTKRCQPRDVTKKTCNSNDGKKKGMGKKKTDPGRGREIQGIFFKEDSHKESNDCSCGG

CC[C@H](C)[C@H](NC(=O)[C@H](Cc1c[nH]c2ccccc12)NC(=O)[C@H](CCC(=O)O)NC(=O)[C@H](CC(N)=O)NC(=O)[C@@H](N)CO)C(=O)N[C@@H](CCC(N)=O)C(=O)N1CCC[C@H]1C(=O)N[C@@H](CCCNC(=N)N)C(=O)N[C@@H](CC(C)C)C(=O)N1CCC[C@H]1C(=O)N[C@@H](CCC(N)=O)C(=O)N[C@@H](Cc1c[nH]cn1)C(=O)O [SEQ ID NO 18]
Stable binding of EphB receptors in pull-down [1]: stably bind EphB receptors
Inhibition of COS cell retraction phenotype [2]: inhibited the COS cell retraction phenotype

SEQ ID NO 20: 12-mer from EphB4 panning; printed DAL[image]D[image]L[image]FRPW (DALNDWLLFRPW)
Inhibition of DALN phage binding to immobilized EphB4 ectodomain [3]: inhibited binding of DALN phage
Pull-down of EphB4, peptides used alone or together [4]: ineffective

CC[C@H](C)[C@H](NC(=O)[C@H](C)NC(=O)[C@H](Cc1ccccc1)NC(=O)[C@@H]1CCCN1C(=O)[C@H](CCC(=O)O)NC(=O)[C@@H](NC(=O)[C@@H](NC(=O)[C@H](Cc1c[nH]c2ccccc12)NC(=O)[C@H](Cc1c[nH]cn1)NC(=O)[C@@H](N)Cc1c[nH]c2ccccc12)[C@@H](C)O)[C@@H](C)CC)C(=O)N[C@H](C(=O)N[C@@H](CO)C(=O)O)[C@@H](C)O [SEQ ID NO 8]
Solubility in aqueous buffers [5]: low solubility

B1: ephrin-B2: ephrin ligand; monovalent interaction with EphB2, literature KD (protein, UniProt P52799 28-333, looked up)
Ephrin-B2: IVLEPIYWNSSNSKFLPGQGLVLYPQIGDKLDIICPKVDSKTVGQYEYYKVYMVDKDQADRCTIKKENTPLLNCAKPDQDIKFTIKFQEFSPNLWGLEFQKNKDYYIISTSNGSLEGLDNQEGGVCQTRAMKILMKVGQDASSAGSTRNKDPTRRPELEAGTNGRSSTTSPFVKPNPGSSTDGNSAGHSGNNILGSEVALFAGIASGCIIFIVIIITLVVLLLKYRRRHRKHSPQHTTTLSLSTLATPKRSGNNNGSEPSDIIIPLRTADSVFCPHYEKVSGDYGHPVYIVQEMPPQSPANIYYKV
Kd [6]: 16 nM
